Key:
[1] = Solubilization capacity of microemulsion / concentrate for Carbamazepine; assay type: physicochemical; conditions: 50 wt % aqueous phase (water:PG 1:1), dilution line 7:3, D-limonene:ethanol 1:1, FIG. 2
Protocol: When solubilizing a drug in a microemulsion system, the solubilization capacity should be characterized. […] For the 7:3 dilution line (FIG. 2), the 5 gr oil phase concentrate comprises 0.75 gr of D-limonene, 0.75 gr EtOH (each being 15 wt %), and 3.5 gr Tween 60 (70 wt %). The 5 gr oil concentrate is then diluted in an aqueous phase of water:propylene glycol (1:1). For the 8:2 dilution line (FIG. 3) the 5 gr oil phase concentrate comprises 0.5 gr of D-limonene, 0.5 gr EtOH (each being 10 wt %), and 4 gr Tween 60 (80 wt %). The 5 gr oil concentrate is then diluted in an aqueous phase of water:propylene glycol (1:1). For the 9:1 dilution line (FIG. 4) the 5 gr oil phase concentrate comprises 0.25 gr of D-limonene, 0.25 gr EtOH (each being 5 wt %), and 4 gr Tween 60 (90 wt %). The 5 gr oil concentrate is then diluted in an aqueous phase of water:propylene glycol (1:1).
Preparations of the microemulsions and microemulsion concentrate were done in the following manner. The surfactant and the oil phase were mixed at the appropriate ratio, 7:3, 8:2 and 9:1 respectively, to form the concentrate. The solubilization of the drug in the concentrate was determined by solubilizing it to form clear solutions, until the maximal amount was reached. […]

[2] = following a single oral dose; cited from earlier work

NC(=O)N1c2ccccc2C=Cc2ccccc21 [Carbamazepine, 5H-Dibenz(b,f)azepine-5-carboxamide]
solubilization capacity of microemulsion (solubilized Carbamazepine) [1]: 3.76%
elimination half-life of unchanged Carbamazepine in the plasma [2]: approximately 36 hours

— patent publication US20100143462A1, “NEW CARBAMAZEPHINE FORMULATIONS HAVING INPROVED SOLUBILITY” (NUTRALEASE LTD., priority 2004, published 2010)
